Test results as given in BindingDB's records for doi:10.1021/jm030354b (Millennium Pharmaceuticals, 2004).

Target: Integrin alpha-IIb/beta-3 (Homo sapiens, UniProt P08514+P05106)
Test: Inhibition of platelet aggregation induced by 20 uM adenosine 5-diphosphate (ADP) in citreated human platelet rich plasma (h-PRP)

Chain of Integrin alpha-IIb/beta-3 (P05106 27-788 limits assumed): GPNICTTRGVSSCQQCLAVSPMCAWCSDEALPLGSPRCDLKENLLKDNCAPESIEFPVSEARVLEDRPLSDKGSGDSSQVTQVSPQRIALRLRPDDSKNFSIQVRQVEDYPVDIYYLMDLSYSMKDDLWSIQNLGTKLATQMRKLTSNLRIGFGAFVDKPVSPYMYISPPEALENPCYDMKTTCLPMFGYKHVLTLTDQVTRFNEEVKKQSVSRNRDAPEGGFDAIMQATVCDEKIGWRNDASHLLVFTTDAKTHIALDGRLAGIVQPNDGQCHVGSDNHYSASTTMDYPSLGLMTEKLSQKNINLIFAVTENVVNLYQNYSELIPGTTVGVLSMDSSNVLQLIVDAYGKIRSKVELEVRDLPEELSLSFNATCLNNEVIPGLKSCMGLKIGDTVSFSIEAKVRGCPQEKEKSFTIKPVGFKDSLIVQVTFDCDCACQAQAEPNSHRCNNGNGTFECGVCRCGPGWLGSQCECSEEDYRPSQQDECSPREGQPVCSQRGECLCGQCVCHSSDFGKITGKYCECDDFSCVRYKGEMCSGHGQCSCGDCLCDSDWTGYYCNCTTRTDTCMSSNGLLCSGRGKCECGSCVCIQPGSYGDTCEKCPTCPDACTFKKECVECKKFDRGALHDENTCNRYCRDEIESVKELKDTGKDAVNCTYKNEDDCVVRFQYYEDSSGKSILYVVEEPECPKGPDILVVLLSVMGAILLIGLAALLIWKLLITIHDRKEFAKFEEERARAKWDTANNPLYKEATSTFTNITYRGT
Chain of Integrin alpha-IIb/beta-3 (P08514 32-887 limits assumed): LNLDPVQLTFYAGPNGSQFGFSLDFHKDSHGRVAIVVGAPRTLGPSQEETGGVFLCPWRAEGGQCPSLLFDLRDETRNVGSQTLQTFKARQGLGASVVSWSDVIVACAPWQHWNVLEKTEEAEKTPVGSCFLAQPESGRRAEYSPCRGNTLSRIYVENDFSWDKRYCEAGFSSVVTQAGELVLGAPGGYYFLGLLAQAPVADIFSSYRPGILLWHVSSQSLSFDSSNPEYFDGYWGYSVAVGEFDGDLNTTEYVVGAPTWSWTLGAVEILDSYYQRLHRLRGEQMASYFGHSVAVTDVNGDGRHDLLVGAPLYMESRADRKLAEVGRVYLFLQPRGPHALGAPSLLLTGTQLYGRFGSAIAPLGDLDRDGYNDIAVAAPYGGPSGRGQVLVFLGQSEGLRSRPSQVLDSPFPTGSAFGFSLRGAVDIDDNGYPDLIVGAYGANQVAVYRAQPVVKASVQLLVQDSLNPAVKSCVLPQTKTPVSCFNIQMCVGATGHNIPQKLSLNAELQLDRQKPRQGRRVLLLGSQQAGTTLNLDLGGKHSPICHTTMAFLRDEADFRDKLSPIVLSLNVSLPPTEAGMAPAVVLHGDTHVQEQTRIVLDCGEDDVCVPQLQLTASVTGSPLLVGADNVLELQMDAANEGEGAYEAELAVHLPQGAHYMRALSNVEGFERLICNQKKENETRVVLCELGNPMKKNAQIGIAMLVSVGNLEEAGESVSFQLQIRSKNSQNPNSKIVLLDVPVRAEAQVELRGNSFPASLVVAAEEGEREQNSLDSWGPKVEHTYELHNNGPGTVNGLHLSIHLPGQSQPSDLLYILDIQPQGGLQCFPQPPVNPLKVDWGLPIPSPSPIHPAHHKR
Chain of Integrin alpha-IIb/beta-3 (P08514 891-1039 limits assumed): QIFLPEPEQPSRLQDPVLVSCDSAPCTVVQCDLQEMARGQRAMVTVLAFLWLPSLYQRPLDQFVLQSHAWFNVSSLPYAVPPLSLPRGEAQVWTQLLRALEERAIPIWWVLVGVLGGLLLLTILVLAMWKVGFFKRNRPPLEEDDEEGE

Row | IC50 | Structure (SMILES)
1 | 3600 nM | CC(C)(COC(=O)N1CCC2(CC1)CC(=O)N(c1ccc(C(=N)N)cc1)C2)C(=O)O [2-(4-Carbamimidoyl-phenyl)-3-oxo-2,8-diaza-spiro[4.5]decane-8-carboxylic acid 2-carboxy-2-methyl-propyl ester]
2 | 12500 nM | N=C(N)c1ccc(N2CCC3(CCN(C(=O)CC(=O)O)CC3)C2=O)cc1 [3-[2-(4-Carbamimidoyl-phenyl)-1-oxo-2,8-diaza-spiro[4.5]dec-8-yl]-3-oxo-propionic acid]
3 | 7400 nM | N=C(N)c1ccc(N2CC3(CCN(C(=O)CC(=O)O)CC3)CC2=O)cc1 [3-[2-(4-Carbamimidoyl-phenyl)-3-oxo-2,8-diaza-spiro[4.5]dec-8-yl]-3-oxo-propionic acid]
4 | 640 nM | N=C(N)c1ccc(N2C(=O)CC3(CCN(C(=O)NCCC(=O)O)CC3)C2=O)cc1 [3-{[2-(4-Carbamimidoyl-phenyl)-1,3-dioxo-2,8-diaza-spiro[4.5]decane-8-carbonyl]-amino}-propionic acid]
5 | 66 nM | Cc1ccc(S(=O)(=O)N[C@@H](CNC(=O)N2CCC3(CC2)CCN(c2ccc(C(=N)N)cc2)C3=O)C(=O)O)cc1 [3-{[2-(4-Carbamimidoyl-phenyl)-1-oxo-2,8-diaza-spiro[4.5]decane-8-carbonyl]-amino}-2-(toluene-4-sulfonylamino)-propionic acid]
6 | 122 nM | CC(CC(=O)O)NC(=O)N1CCC2(CC1)CCN(c1ccc(C(=N)N)cc1)C2=O (configuration not stated) [3-{[2-(4-Carbamimidoyl-phenyl)-1-oxo-2,8-diaza-spiro[4.5]decane-8-carbonyl]-amino}-butyric acid]
7 | 171 nM | N=C(N)c1ccc(N2CC3(CCN(C(=O)NCCC(=O)O)CC3)CC2=O)cc1 [3-{[2-(4-Carbamimidoyl-phenyl)-3-oxo-2,8-diaza-spiro[4.5]decane-8-carbonyl]-amino}-propionic acid]
8 | 103 nM | CN1C(=O)N(c2ccc(C(=N)N)cc2)C(=O)C12CCN(C(=O)NC(CC(=O)O)c1ccccc1)CC2 (configuration not stated) [3-{[3-(4-Carbamimidoyl-phenyl)-1-methyl-2,4-dioxo-1,3,8-triaza-spiro[4.5]decane-8-carbonyl]-amino}-3-phenyl-propionic acid]
9 | 222 nM | CN1C(=O)N(c2ccc(C(=N)N)cc2)C(=O)C12CCN(C(=O)NCCC(=O)O)CC2 [3-{[3-(4-Carbamimidoyl-phenyl)-1-methyl-2,4-dioxo-1,3,8-triaza-spiro[4.5]decane-8-carbonyl]-amino}-propionic acid]
10 | 212 nM | CN1C(=O)N(c2ccc(C(=N)N)cc2)CC12CCN(C(=O)NCCC(=O)O)CC2 [3-{[3-(4-Carbamimidoyl-phenyl)-1-methyl-2-oxo-1,3,8-triaza-spiro[4.5]decane-8-carbonyl]-amino}-propionic acid]
11 | 468 nM | N=C(N)c1ccc(N2C(=O)NC3(CCN(C(=O)NCCC(=O)O)CC3)C2=O)cc1 [3-{[3-(4-Carbamimidoyl-phenyl)-2,4-dioxo-1,3,8-triaza-spiro[4.5]decane-8-carbonyl]-amino}-propionic acid]
12 | 3770 nM | N=C(N)c1ccc(N2CC3(CCN(C(=O)NCCC(=O)O)CC3)NC2=O)cc1 [3-{[3-(4-Carbamimidoyl-phenyl)-2-oxo-1,3,8-triaza-spiro[4.5]decane-8-carbonyl]-amino}-propionic acid]
13 | 733 nM | N=C(N)c1ccc(N2CCC3(CCN(C(=O)CCC(=O)O)CC3)C2=O)cc1 [4-[2-(4-Carbamimidoyl-phenyl)-1-oxo-2,8-diaza-spiro[4.5]dec-8-yl]-4-oxo-butyric acid]
14 | 5700 nM | N=C(N)c1ccc(N2CC3(CCN(C(=O)CCC(=O)O)CC3)CC2=O)cc1 [4-[2-(4-Carbamimidoyl-phenyl)-3-oxo-2,8-diaza-spiro[4.5]dec-8-yl]-4-oxo-butyric acid]
15 | 730 nM | N=C(N)c1ccc(N2C(=O)CC3(CCN(C(=O)CCCC(=O)O)CC3)C2=O)cc1 [5-[2-(4-Carbamimidoyl-phenyl)-1,3-dioxo-2,8-diaza-spiro[4.5]dec-8-yl]-5-oxo-pentanoic acid]
16 | 36 nM | Cc1noc(C)c1S(=O)(=O)N[C@@H](CCC(=O)N1CCC2(CC1)CCN(c1ccc(C(=N)N)cc1)C2=O)C(=O)O [5-[2-(4-Carbamimidoyl-phenyl)-1-oxo-2,8-diaza-spiro[4.5]dec-8-yl]-2-(3,5-dimethyl-isoxazole-4-sulfonylamino)-5-oxo-pentanoic acid]
17 | 149 nM | N=C(N)c1ccc(N2CCC3(CCN(C(=O)CC(CC(=O)O)c4ccccc4)CC3)C2=O)cc1 (configuration not stated) [5-[2-(4-Carbamimidoyl-phenyl)-1-oxo-2,8-diaza-spiro[4.5]dec-8-yl]-5-oxo-3-phenyl-pentanoic acid]

Row | IC50 | Structure (SMILES)
18 | 5180 nM | N=C(N)c1ccc(N2CCC3(CCN(CCCCC(=O)O)CC3)C2=O)cc1 [5-[2-(4-Carbamimidoyl-phenyl)-1-oxo-2,8-diaza-spiro[4.5]dec-8-yl]-pentanoic acid]
19 | 100 nM | N=C(N)c1ccc(N2CC3(CCN(C(=O)CC(CC(=O)O)c4ccccc4)CC3)CC2=O)cc1 (configuration not stated) [5-[2-(4-Carbamimidoyl-phenyl)-3-oxo-2,8-diaza-spiro[4.5]dec-8-yl]-5-oxo-3-phenyl-pentanoic acid]
20 | 118 nM | Cc1noc(C)c1S(=O)(=O)N[C@@H](CCC(=O)N1CCC2(CC1)C(=O)N(c1ccc(C(=N)N)cc1)C(=O)N2C)C(=O)O [5-[3-(4-Carbamimidoyl-phenyl)-1-methyl-2,4-dioxo-1,3,8-triaza-spiro[4.5]dec-8-yl]-2-(3,5-dimethyl-isoxazole-4-sulfonylamino)-5-oxo-pentanoic acid]
21 | 120 nM | CN1C(=O)N(c2ccc(C(=N)N)cc2)C(=O)C12CCN(C(=O)CC(CC(=O)O)c1ccccc1)CC2 (configuration not stated) [5-[3-(4-Carbamimidoyl-phenyl)-1-methyl-2,4-dioxo-1,3,8-triaza-spiro[4.5]dec-8-yl]-5-oxo-3-phenyl-pentanoic acid]
22 | 700 nM | CN1C(=O)N(c2ccc(C(=N)N)cc2)C(=O)C12CCN(C(=O)CCCC(=O)O)CC2 [5-[3-(4-Carbamimidoyl-phenyl)-1-methyl-2,4-dioxo-1,3,8-triaza-spiro[4.5]dec-8-yl]-5-oxo-pentanoic acid]
23 | 7560 nM | CN1C(=O)N(c2ccc(C(=N)N)cc2)C(=O)C12CCN(CCCCC(=O)O)CC2 [5-[3-(4-Carbamimidoyl-phenyl)-1-methyl-2,4-dioxo-1,3,8-triaza-spiro[4.5]dec-8-yl]-pentanoic acid]
24 | 80 nM | CN1C(=O)N(c2ccc(C(=N)N)cc2)CC12CCN(C(=O)CC(CC(=O)O)c1ccccc1)CC2 (configuration not stated) [5-[3-(4-Carbamimidoyl-phenyl)-1-methyl-2-oxo-1,3,8-triaza-spiro[4.5]dec-8-yl]-5-oxo-3-phenyl-pentanoic acid]
25 | 674 nM | CN1C(=O)N(c2ccc(C(=N)N)cc2)CC12CCN(C(=O)CCCC(=O)O)CC2 [5-[3-(4-Carbamimidoyl-phenyl)-1-methyl-2-oxo-1,3,8-triaza-spiro[4.5]dec-8-yl]-5-oxo-pentanoic acid]
26 | 586 nM | N=C(N)c1ccc(N2C(=O)NC3(CCN(C(=O)CCCC(=O)O)CC3)C2=O)cc1 [5-[3-(4-Carbamimidoyl-phenyl)-2,4-dioxo-1,3,8-triaza-spiro[4.5]dec-8-yl]-5-oxo-pentanoic acid]
27 | 1020 nM | N=C(N)c1ccc(N2CC3(CCN(C(=O)CCCC(=O)O)CC3)NC2=O)cc1 [5-[3-(4-Carbamimidoyl-phenyl)-2-oxo-1,3,8-triaza-spiro[4.5]dec-8-yl]-5-oxo-pentanoic acid]
28 | 7540 nM | CCNC(=N)c1ccc(N2CCC3(CCN(C(=O)CCCC(=O)O)CC3)C2=O)cc1 [5-{2-[4-(N-Ethylcarbamimidoyl)-phenyl]-1-oxo-2,8-diaza-spiro[4.5]dec-8-yl}-5-oxo-pentanoic acid]
29 | 3400 nM | N=C(N)c1ccc(N2CCC3(CCN(C(=O)CCCCC(=O)O)CC3)C2=O)cc1 [6-[2-(4-Carbamimidoyl-phenyl)-1-oxo-2,8-diaza-spiro[4.5]dec-8-yl]-6-oxo-hexanoic acid]
30 | 4100 nM | N=C(N)c1ccc(N2CC3(CCN(C(=O)CCCCC(=O)O)CC3)CC2=O)cc1 [6-[2-(4-Carbamimidoyl-phenyl)-3-oxo-2,8-diaza-spiro[4.5]dec-8-yl]-6-oxo-hexanoic acid]
31 | 68 nM | C[C@H](CC(=O)O)NC(=O)N1CCC2(CC1)CCN(c1ccc(C(=N)N)cc1)C2=O [(R)-3-{[2-(4-Carbamimidoyl-phenyl)-1-oxo-2,8-diaza-spiro[4.5]decane-8-carbonyl]-amino}-butyric acid]
32 | 59 nM | Cc1ccc(S(=O)(=O)N[C@@H](CNC(=O)N2CCC3(CC2)C(=O)N(c2ccc(C(=N)N)cc2)C(=O)N3C)C(=O)O)cc1 [(S)-3-{[3-(4-Carbamimidoyl-phenyl)-1-methyl-2,4-dioxo-1,3,8-triaza-spiro[4.5]decane-8-carbonyl]-amino}-2-(toluene-4-sulfonylamino)-propionic acid]
33 | 350 nM | C[C@H](CC(=O)O)CC(=O)N1CCC2(CC1)CCN(c1ccc(C(=N)N)cc1)C2=O [(S)-5-[2-(4-Carbamimidoyl-phenyl)-1-oxo-2,8-diaza-spiro[4.5]dec-8-yl]-3-methyl-5-oxo-pentanoic acid]

Row | Structure (SMILES) | IC50
34 | CCCCOC(=O)N[C@@H](CCC(=O)N1CCC2(CC1)CC(=O)N(c1ccc(C(=N)N)cc1)C2=O)C(=O)O [2-Butoxycarbonylamino-5-[2-(4-carbamimidoyl-phenyl)-1,3-dioxo-2,8-diaza-spiro[4.5]dec-8-yl]-5-oxo-pentanoic acid] | 270 nM
35 | CCCCOC(=O)N[C@@H](CCC(=O)N1CCC2(CC1)CCN(c1ccc(C(=N)N)cc1)C2=O)C(=O)O [2-Butoxycarbonylamino-5-[2-(4-carbamimidoyl-phenyl)-1-oxo-2,8-diaza-spiro[4.5]dec-8-yl]-5-oxo-pentanoic acid] | 66 nM
36 | CCCCOC(=O)N[C@@H](CCC(=O)N1CCC2(CC1)C(=O)N(c1ccc(C(=N)N)cc1)C(=O)N2C)C(=O)O [2-Butoxycarbonylamino-5-[3-(4-carbamimidoyl-phenyl)-1-methyl-2,4-dioxo-1,3,8-triaza-spiro[4.5]dec-8-yl]-5-oxo-pentanoic acid] | 65 nM

Target: not listed separately
Test: Inhibition of human platelet (h-PRP) aggregation induced by 20 uM ADP with PPACK

Row | IC50 | Structure (SMILES)
37 | 112 nM | C[C@@H](CC(=O)O)CC(=O)N1CCC2(CC1)CCN(c1ccc(C(=N)N)cc1)C2=O [(R)-5-[2-(4-Carbamimidoyl-phenyl)-1-oxo-2,8-diaza-spiro[4.5]dec-8-yl]-3-methyl-5-oxo-pentanoic acid]
